Entries after “also recorded” stand apart in the source; their conditions may differ. Where a name gives a salt, the structure may show the parent alone.

The source of these data is patent US9464121B2, “Compositions and methods for treating erectile dysfunction” (priority 2007, dated 2016).

One assay relates to C2C12 myoblasts. Nature of the assay: Intracellular calcium determination with Fluo-3AM (confocal microscopy). In kind it is cell-based. As for the experimental part:
To confirm that the f40/7841 polypeptide had no effect on calcium flux, C2C12 myoblasts were treated with f40/7841 polypeptide and intracellular calcium levels were assayed using the calcium-sensitive fluorchrome, Fluo-3AM. For the intracellular Ca^2+ measurements, a Confocal LSM 510 Meta Confocal (Zeiss, Jena, Alemania) microscope with a lasing line excitation of 488 nm was used. C2C12 cells were seeded in 60 mm culture dishes (Nalge Nunc International, Rochester, N.Y.) and cultured for 48 hours at which time each plate contained about 250,000 cells. The cells were loaded with fluorochrome in concentration of 4 μM fluo-3AM (Sigma) in 0.5% Me2SO and 0.1% of pluronic acid F-127 for 30 minutes at 37° C.; washed three times with a modified Dulbecco's solution with 10% of fetal bovine serum and returned to the incubator.
The fluorescence of Fluo-3AM was stimulated at 488 nm and measured at 515 nm using a bandpass filter. The intracellular Ca^2+ was measured for 10 seconds, followed by the addition of 1 μM f40/7841 polypeptide and 1.5 mM of carbachol. The Ca^2+ changes were monitored for 2 minutes and the images were taken every 1.5 sec. The calcium ionophore 4-Br-A23187 (5 μM) followed by 10 mM EGTA were then added to obtain the maximum calcium excitation (Fmax) and the minimum fluorescence (Fmin), respectively. The intracellular [Ca^2+] of fluorescence (F) obtained by the used f40/7841 was calculated in the following way: intracellular [Ca^2+]=Kd*(*F−F*min)/(*F*max−*F*), assuming 450 nM. *Kd* for the fluo-3AM, the concentrations were calculated in cellular populations that contained at least 10 cells.

Assay [1] has as its system corpus cavernosum. Nature of the assay: In vitro corpus cavernosum assay for smooth muscle relaxation (isolated organ chamber, phenylephrine-contracted tissue). In kind it is cell-based, Wistar adult male rats. As for the experimental part: The effect of polypeptides on corpus cavernosum contractile activity in vitro was analyzed in corpus cavernosum tissue harvested from Wistar adult male rats. Tissue was vertically positioned in an isolated organ chamber under the conditions described below. Adult male Wistar rats, aged 1.5-2 months and 250-350 g in weight were sacrificed by cervical dislocation and the penis was removed from the base, yielding about 2 cm of isolated tissue. The penile tissue was dissected under a Zeiss STEMI DV4 stereoscopic magnifying glass. The tunica albuginea, which protects the cavernous and spongious corpuses, was gently removed. The cavernous bodies were removed from their central position, obtaining two fragments of equal length and diameter, which were then transferred to a Tyrode physiological solution properly oxygenated (mix of 95% O2 and 5% CO2), at 37° C. at pH 7.4.
The cavernous segments were tied with silk at their distal and proximal extremes and immersed in a Tyrode physiologic solution in the chambers. The distal part was tied to the connecting rod and the proximal portion was connected to the isometric contraction transducer (TRI 201/0-25 g) connected to an analogue/digital interphase Power Lab/4SP Ad instrument, making it possible to store and analyse the registered signals by the use of Chart 5 software. Essentially, the fragments were connected to a analogic tension transducer, which transferred its signal to a Power Lab-Letica interphase, which records, graphs and stores the information generated by the physiologic preparation in force/time (g/min scale).
Prior to assaying the polypeptides, the isolated corpus cavernosum samples were stabilized as follows. After placing the corpus cavernosum in the isolated organ chamber, a 0.5 g tension at a normal velocity (1:1 proportion) was applied for one hour. During this time the basal tension and oxygenation (10 ml/min) remained constant. After the first 20 minutes, the preparation was washed using Tyrode physiologic solution, the tension was fixed and the procedure was repeated every 20 minutes for a total of 4 times. In the final washing process, in Chart 5 control system, the recording speed was modified from 10× to 1×.
The ability of f40/7841 to induce smooth muscle relaxation was assayed in the corpus cavernosum assay described in Example 2 in the presence of 50 μM phenylephrine, a pharmacological agonist of the alpha-adrenergic receptor that induces smooth muscle contraction.
To determine the relaxation potential it was necessary to induce first a maximum contractile response (control), in the presence of a drug that activates α-adrenergic receptors, phenylephrine (50 μM). The obtained results of the experimental series are statistically analyzed with a statistical significance of P<0.05, and graphed with GraphPad Prim.V.3.02 software.

The target in assay [2] is T1, alpha 7 nicotinic acetylcholine receptor (α7nAch) (Homo sapiens, UniProt P36544).
T1 construct: expressed in transfected cells; host or cells: PC12 cells
T1 sequence (P36544 23-502): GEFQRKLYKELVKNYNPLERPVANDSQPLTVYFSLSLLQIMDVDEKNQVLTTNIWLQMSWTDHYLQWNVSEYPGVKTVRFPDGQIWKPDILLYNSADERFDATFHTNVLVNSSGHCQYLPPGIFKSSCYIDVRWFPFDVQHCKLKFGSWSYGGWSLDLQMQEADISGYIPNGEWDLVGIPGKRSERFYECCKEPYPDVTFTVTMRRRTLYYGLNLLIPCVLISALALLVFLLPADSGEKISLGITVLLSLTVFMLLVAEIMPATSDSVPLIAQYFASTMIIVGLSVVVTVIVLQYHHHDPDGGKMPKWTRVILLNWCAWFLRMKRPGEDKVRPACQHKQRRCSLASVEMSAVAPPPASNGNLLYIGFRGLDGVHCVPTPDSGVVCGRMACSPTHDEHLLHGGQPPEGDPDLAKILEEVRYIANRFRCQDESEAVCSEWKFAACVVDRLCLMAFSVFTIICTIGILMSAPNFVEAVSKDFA
Nature of the assay: Whole-cell patch clamp of PC12 cells engineered to express the alpha 7 nicotinic acetylcholine receptor. In kind it is cell-based. As for the experimental part:
The ability of the f40/7841 polypeptide to activate nicotinic acetylcholine receptors (nAChR) was assayed by whole cell patch clamp analysis of PC12 cells that had been engineered to express the alpha 7 nicotinic acetylcholine receptor (α7nAch). PC12 cells were transfected and cultured for 48 hours in an 80% of MEM, solution that contained (mM): 150 NaCl, 5.4 KCl, 2.0 CaCl2, 1.0 MgCl2, 10 glucose and 10 Hepes (7.4), 2 mM, and 10% of fetal bovine serum at 37° C. (Trifaro et al. In vitro Cell Dev. Biol. 1990). The cells were incubated for one hour at 22° C. before starting the experiments. The current changes were detected through a whole-cell patch-clamp system through a Warner PC-501^a amplifier and an inverted Olympus 9° 70 microscope. The membrane potential was adjusted to −60 mV; the current was recorded at intervals of 5 μs and it was filtered at 2 Kh using a computer connected to a recording system through an acquisition card Digidata 9.0 (Axon Instrument, Inc) and the software PC 9 (Axon Instrument, Inc). The stock solution for the assays with the peptides were kept refrigerated at 4° C. and the micropipettes contained an internal solution of: 140 mM NaCl, 5 mM KCl, 2 mM CaCl2, 1.5 mM MgCl2, and 10 mM HEPES, pH 7.4.
The purified f40/7841 polypeptide was purified according to the method in Example 1. 0.1 mg of the polypeptide was diluted in 100 μl. of sterile PBS at pH 7.4. […]
Background: Patch clamp records ionic current or voltage across a cell membrane.

Assay [3] concerns corpus cavernosum. Nature of the assay: In vitro corpus cavernosum assay for smooth muscle relaxation (isolated organ chamber, phenylephrine-contracted tissue). In kind it is cell-based, Wistar adult male rats. The settings on record: phenylephrine 5 μM, atropine 1 μM, polypeptide 1 μgml (FIG. 13).

Take `CNc1c(Br)cc2oc(C[C@H]3OC4(CC[C@H]3C)O[C@H]([C@H](C)C(=O)c3ccc[nH]3)[C@H](C)C[C@H]4C)nc2c1C(=O)O` (some centres unmarked) [4-Br-A23187]: in the assay on C2C12 myoblasts (4-Br-A23187 5 μM, positive control (FIG. 17)), the “Fluo-3AM fluorescence (calcium) after ionophore” value is recorded as “sharp spike of fluorescence”.

Regarding `O=C(O)CN(CCOCCOCCN(CC(=O)O)CC(=O)O)CC(=O)O` [EGTA], the “effect on ionophore-induced fluorescence spike” value with C2C12 myoblasts (10 mM EGTA added after 4-Br-A23187 (FIG. 17)) is given as “abolished”.

On to `CN1[C@@H]2CC[C@H]1C[C@@H](OC(=O)C(CO)c1ccccc1)C2` (some centres unmarked) [atropine], for which, in the assay on corpus cavernosum [1] (atropine 1 uM added after 40 minutes of phenylephrine (FIG. 13, upper tracing)), the “tonic response to phenylephrine in the presence of atropine” value is listed as “gradually reduced over time”.

Regarding `C[N+](C)(C)CCOC(N)=O` [carbachol], in assay [2] (10 μM carbachol, positive control, membrane potential −60 mV (FIG. 15)), the potassium current was found to be 10 pA.

As to `CNC[C@H](O)c1cccc(O)c1` [phenylephrine], the “contractile response of corpus cavernosum” value with corpus cavernosum [1] (phenylephrine 50 μM (FIG. 7, FIG. 9)) is listed as “phasic contractile response followed by a steadily maintained tonic response; also recorded: quick phasic contraction”.

For the molecule `CCCc1nn(C)c2c(=O)[nH]c(-c3cc(S(=O)(=O)N4CCN(C)CC4)ccc3OCC)nc12` [sildenafil citrate, 1-[4-ethoxy-3-(6,7-dihydro-1-methyl-7-oxo-3-propyl-1H-pyrazolo[4,3-d]pyrimidin-5-yl)phenylsulfonyl]-4-methylpiperazine], the “contractile response after sildenafil citrate alone” value in the assay on corpus cavernosum [1] (1 μM, after 50 μM phenylephrine, over a period of 25-30 minutes (FIG. 1)) is reported as “slow decrease of the contractile response”. Besides, the “concentration of sildenafil citrate alone required for a relaxation rate comparable to f40/7841 plus 1 μM sildenafil citrate” value with corpus cavernosum [1] (after 50 μM phenylephrine, typical value) came out at 100 µM.

B1: f40/7841 (protein)
chain: GDSLDPAEFACADDIDQAELLKNNDICLQCEDLHKEGLVFSLCKTNCFSTEYFQHCVKDLEEAKKEPPE
modifications: also: blocked N-terminus, not given here
Consider B1, for which the “ability to induce relaxation in the presence of atropine” value in the assay with corpus cavernosum [3] is “attenuated”. Besides, the rapid potassium current in assay [2] (0.1 μg/ml polypeptide, membrane potential −60 mV (FIG. 16, in the presence of carbachol)) is 500 pA. Moreover, the “ability to induce relaxation, atropine added prior to phenylephrine” value with corpus cavernosum [1] (1 μM atropine, then phenylephrine 50 μM, polypeptide 2 μg/ml after twenty minutes (FIG. 14)) is reported as “attenuated”. Further, in the assay on corpus cavernosum [1] (2 μg/ml added after 20 minutes of 50 μM phenylephrine (FIG. 10)), the “effect on tonic contraction (relaxation)” value was “rapid decrease in tonic contraction”. Also, in the assay with corpus cavernosum [1] (phenylephrine, then L-NAME 10 mM, then polypeptide 0.02, 0.2 or 2 μg/ml (FIG. 11, FIG. 12), listed as f40/7481), the “relaxation of contracted tissue in the presence of L-NAME (nitric oxide synthase inhibitor)” value is listed as “did not induce a decrease in contraction; also recorded: abolished”. The “contractile response on co-addition with sildenafil citrate, compared to sildenafil citrate alone” value in the assay with corpus cavernosum [1] (polypeptide 2 μg/ml plus 1 μM sildenafil citrate, after 50 μM phenylephrine (FIG. 1)) was “significant decrease in the contractile response”. Besides, the “calcium flux (intracellular Ca2+, Fluo-3AM fluorescence)” value in the assay with C2C12 myoblasts (1 μM polypeptide and 1.5 mM carbachol, monitored for 2 minutes (FIG. 17)) was “did not induce calcium flux”.
